Reference: patent US20240216438A1, “COMPOSITION CONTAINING FUNCTION-REINFORCED STEM CELL FOR PREVENTION OR TREATMENT OF ATOPIC DERMATITIS” (SCM LIFESCIENCE CO., LTD., priority 2021, published 2024)

Test system: mesenchymal stem cells
Assay: qRT-PCR of IDO and TSG6 expression in mesenchymal stem cells treated with priming candidates
Type: cell-based
Settings: for expression of IDO and TSG6: compared to untreated control group 0, Table 1 groups, 24 hours; for lowest effective concentrations capable of inducing significantly increased expression of both TSG6 and IDO: single substance, 24 hours treatment, qRT-PCR
Protocol: In a 37° C. and 5% CO2 incubator, mesenchymal stem cells in a storage state (LN2 tank storage) were thawed and cultured, and at this time, the cells were cultured in a medium (DMEM, alpha-MEM) containing 10% FBS or 4% hPL until proliferated to a cell confluence of about 80%. The cultured mesenchymal stem cells were seeded in a 100 mm dish, and treated with candidate substances for reinforcing the functions of the mesenchymal stem cells for 24 hours, and then the concentrations of primary candidate substances for reinforcing the functions were set.
TNF-α and IFN-γIFN-α were selected as the primary candidate substances, and in order to confirm the lowest effective concentration capable of increasing the expression of TNFα-stimulated gene-6 (TSG6) and indoleamine 2,3-dioxygenase (IDO) to confirm the reinforced functions, the stem cells were treated with 5, 10, and 20 ng/ml of TNF-α, 5, 10, and 20 ng/ml of IFN-γ, and 10, 20, and 40 ng/ml of IFN-α, respectively, and changes in expression of TSG6 and IDO were confirmed.
The IDO was known as an immunomodulatory factor that inhibited the proliferation of immune cells such as T cells by converting tryptophan, which was essential for T cell proliferation, into kynurenine, and the TSG6 was known as an anti-inflammatory regulator secreted by mesenchymal stem cells. After culturing the stem cells, total RNA was isolated using TRIzol (Invitrogen), and cDNA was synthesized from total RNA using PrimeScript™ RT reagent Kit with gDNA Eraser (TaKaRa), and qRT-PCR was performed. The results of TSG6 and IDO according to the concentration of each candidate substance were illustrated in FIGS. 1, 2 and 3.
Through Example 1, candidate substances and concentration combinations thereof selected to search for more functionally reinforced compositions based on the candidate substances and the lowest effective concentrations confirmed to induce the reinforced functions of stem cells were set as shown in Table 1. Mesenchymal stem cells were treated with the candidate combinations described in Table 1 below for 24 hours, and the stem cells were cultured as in Example 1, and then total RNA was isolated using TRIzol (Invitrogen). Thereafter, qRT-PCR was performed by synthesizing cDNA from total RNA using the PrimeScript™ RT reagent Kit with gDNA Eraser (TaKaRa).
Vitamins were known to improve the proliferative ability of stem cells and maintain the stemness of stem cells when added during a stem cell culture process. Accordingly, various vitamins were treated in the stem cell culture process, and experiments were performed to confirm whether or not vitamins could achieve anti-inflammatory and immune function reinforcing effects of stem cells. Specifically, the stem cells were treated with various types of vitamins shown in Table 2 according to the method described in Example 1, and the results of confirming changes in expression of IDO and TSG6 according to treatment with each candidate substance were illustrated in FIG. 5.

Row | Substance | expression of IDO and TSG6 | lowest effective concentrations capable of inducing significantly increased expression of both TSG6 and IDO [ng/mL]
1 | IFN-α | increased expression | 20
2 | TNF-α | increased expression | 10
3 | IFN-γ: priming candidate substance; Table 1 group 2, 10 ng/ml | increased expression | 10
